What was measured:
[1] = molecular target: Beta-2 adrenergic receptor (Homo sapiens, UniProt P07550)
[2] = molecular target: T1, Gastrin/cholecystokinin type B receptor (Homo sapiens, UniProt P32239)
T1 sequence (P32239 whole entry): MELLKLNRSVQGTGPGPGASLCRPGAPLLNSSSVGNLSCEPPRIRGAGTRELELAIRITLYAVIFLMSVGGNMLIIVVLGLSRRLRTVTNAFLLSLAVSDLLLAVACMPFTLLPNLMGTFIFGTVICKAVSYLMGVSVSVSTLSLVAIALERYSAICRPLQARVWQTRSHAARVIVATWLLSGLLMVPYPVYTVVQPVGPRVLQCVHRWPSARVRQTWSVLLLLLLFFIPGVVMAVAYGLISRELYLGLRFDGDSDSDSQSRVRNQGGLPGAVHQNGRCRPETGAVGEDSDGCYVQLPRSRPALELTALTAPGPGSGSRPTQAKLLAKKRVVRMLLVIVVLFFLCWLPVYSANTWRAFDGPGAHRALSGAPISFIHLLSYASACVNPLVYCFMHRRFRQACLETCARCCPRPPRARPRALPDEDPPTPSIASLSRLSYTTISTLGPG

[3] = molecular target: Neuronal acetylcholine receptor subunit alpha-4 (Homo sapiens, UniProt P43681)
[4] = molecular target: Growth hormone secretagogue receptor type 1 (Homo sapiens, UniProt Q92847)
[5] = molecular target: T2, 5-hydroxytryptamine receptor 3A (Homo sapiens, UniProt P46098); format: functional
T2 sequence (P46098 whole entry): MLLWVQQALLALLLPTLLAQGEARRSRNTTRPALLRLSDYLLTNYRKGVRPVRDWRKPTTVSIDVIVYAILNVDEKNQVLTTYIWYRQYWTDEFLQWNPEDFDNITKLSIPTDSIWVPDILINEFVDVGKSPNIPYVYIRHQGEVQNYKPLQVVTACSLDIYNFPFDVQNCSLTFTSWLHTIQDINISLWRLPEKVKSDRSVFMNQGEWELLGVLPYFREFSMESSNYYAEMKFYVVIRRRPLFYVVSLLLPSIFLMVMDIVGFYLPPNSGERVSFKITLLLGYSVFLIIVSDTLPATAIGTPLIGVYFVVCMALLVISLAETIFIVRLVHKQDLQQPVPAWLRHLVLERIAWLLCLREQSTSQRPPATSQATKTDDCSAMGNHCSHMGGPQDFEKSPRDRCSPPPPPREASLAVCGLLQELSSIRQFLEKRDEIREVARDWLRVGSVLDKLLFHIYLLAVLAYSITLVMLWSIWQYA

[6] = molecular target: Delta-type opioid receptor (Homo sapiens, UniProt P41143)
[7] = molecular target: cGMP-inhibited 3',5'-cyclic phosphodiesterase 3A (Homo sapiens, UniProt Q14432); format: functional
[8] = molecular target: T3, Alpha-2A adrenergic receptor (Homo sapiens, UniProt P08913); format: functional, cell-based
T3 sequence (P08913 whole entry): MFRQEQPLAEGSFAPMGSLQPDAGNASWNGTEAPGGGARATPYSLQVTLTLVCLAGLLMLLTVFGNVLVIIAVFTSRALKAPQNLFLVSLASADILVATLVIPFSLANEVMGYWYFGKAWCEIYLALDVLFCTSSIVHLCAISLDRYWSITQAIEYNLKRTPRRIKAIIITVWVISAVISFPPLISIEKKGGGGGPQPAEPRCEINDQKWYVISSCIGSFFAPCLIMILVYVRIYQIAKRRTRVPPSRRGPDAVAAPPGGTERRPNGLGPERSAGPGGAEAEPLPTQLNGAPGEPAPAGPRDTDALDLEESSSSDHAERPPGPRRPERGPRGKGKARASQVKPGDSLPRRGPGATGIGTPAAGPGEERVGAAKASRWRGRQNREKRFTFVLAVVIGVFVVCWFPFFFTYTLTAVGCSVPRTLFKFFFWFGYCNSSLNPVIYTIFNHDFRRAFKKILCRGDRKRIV

[9] = molecular target: T4, Muscarinic acetylcholine receptor M2 (Homo sapiens, UniProt P08172); format: functional, cell-based
T4 sequence (P08172 whole entry): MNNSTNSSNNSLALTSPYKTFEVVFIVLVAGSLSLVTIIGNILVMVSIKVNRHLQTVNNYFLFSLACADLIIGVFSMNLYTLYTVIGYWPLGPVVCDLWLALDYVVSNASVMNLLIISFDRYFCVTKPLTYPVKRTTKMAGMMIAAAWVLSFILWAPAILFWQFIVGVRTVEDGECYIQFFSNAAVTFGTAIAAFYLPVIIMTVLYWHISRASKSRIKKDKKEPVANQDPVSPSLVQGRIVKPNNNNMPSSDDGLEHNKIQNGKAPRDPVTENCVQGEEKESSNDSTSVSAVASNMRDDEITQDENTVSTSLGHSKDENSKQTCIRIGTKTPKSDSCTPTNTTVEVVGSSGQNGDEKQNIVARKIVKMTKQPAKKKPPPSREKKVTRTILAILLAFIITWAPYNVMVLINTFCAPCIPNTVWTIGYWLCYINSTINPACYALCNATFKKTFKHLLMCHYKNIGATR

Cannabinoid receptor 1 [10] = molecular target: T5, Cannabinoid receptor 1 (Homo sapiens, UniProt P21554); format: functional, cell-based
Cannabinoid receptor 1 [11] = molecular target: T5, Cannabinoid receptor 1; format: functional, cell-based; remark: listed apart in the source
Histamine H2 receptor = Histamine H2 receptor (Homo sapiens, UniProt P25021); format: functional, cell-based
[12] = molecular target: 5-hydroxytryptamine receptor 2A (Homo sapiens, UniProt P28223); format: functional, cell-based
Note: assay procedure not described here.

Chain of 5-hydroxytryptamine receptor 2A (P28223 whole entry): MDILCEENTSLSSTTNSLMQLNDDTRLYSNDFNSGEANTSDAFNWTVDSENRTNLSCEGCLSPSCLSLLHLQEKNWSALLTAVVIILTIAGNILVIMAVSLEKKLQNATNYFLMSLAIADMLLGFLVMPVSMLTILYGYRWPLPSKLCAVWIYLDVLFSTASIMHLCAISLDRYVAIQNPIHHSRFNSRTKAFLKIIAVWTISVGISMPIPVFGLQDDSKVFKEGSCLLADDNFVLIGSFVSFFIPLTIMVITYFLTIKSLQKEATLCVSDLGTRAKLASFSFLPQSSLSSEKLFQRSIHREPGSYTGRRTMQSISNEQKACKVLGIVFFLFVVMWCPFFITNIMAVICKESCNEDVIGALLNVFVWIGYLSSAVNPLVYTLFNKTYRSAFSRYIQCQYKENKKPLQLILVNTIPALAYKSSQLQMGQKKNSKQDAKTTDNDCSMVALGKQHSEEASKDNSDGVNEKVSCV
Chain of Delta-type opioid receptor (P41143 whole entry): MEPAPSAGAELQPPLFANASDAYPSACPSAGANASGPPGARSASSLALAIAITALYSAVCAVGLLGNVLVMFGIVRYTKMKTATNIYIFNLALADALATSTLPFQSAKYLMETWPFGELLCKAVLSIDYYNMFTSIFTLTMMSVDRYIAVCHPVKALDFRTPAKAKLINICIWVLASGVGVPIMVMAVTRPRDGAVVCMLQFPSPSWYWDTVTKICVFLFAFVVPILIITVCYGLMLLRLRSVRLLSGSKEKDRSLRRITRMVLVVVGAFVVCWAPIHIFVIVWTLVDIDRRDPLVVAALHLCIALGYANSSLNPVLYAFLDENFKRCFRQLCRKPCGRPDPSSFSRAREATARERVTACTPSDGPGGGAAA
T5 sequence (P21554 whole entry): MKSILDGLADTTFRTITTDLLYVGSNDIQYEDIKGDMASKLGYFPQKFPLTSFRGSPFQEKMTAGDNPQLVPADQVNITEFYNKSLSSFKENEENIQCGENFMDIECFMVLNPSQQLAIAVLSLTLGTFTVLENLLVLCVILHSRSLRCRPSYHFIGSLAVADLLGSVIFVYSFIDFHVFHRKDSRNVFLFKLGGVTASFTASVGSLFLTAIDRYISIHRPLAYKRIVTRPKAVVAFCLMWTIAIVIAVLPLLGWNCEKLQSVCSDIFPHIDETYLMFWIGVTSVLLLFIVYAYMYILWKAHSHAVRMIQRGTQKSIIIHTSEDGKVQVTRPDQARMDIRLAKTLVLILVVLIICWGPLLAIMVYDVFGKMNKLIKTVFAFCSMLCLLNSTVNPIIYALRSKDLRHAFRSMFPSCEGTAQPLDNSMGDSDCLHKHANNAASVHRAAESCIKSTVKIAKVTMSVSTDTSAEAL
Chain of Neuronal acetylcholine receptor subunit alpha-4 (P43681 whole entry): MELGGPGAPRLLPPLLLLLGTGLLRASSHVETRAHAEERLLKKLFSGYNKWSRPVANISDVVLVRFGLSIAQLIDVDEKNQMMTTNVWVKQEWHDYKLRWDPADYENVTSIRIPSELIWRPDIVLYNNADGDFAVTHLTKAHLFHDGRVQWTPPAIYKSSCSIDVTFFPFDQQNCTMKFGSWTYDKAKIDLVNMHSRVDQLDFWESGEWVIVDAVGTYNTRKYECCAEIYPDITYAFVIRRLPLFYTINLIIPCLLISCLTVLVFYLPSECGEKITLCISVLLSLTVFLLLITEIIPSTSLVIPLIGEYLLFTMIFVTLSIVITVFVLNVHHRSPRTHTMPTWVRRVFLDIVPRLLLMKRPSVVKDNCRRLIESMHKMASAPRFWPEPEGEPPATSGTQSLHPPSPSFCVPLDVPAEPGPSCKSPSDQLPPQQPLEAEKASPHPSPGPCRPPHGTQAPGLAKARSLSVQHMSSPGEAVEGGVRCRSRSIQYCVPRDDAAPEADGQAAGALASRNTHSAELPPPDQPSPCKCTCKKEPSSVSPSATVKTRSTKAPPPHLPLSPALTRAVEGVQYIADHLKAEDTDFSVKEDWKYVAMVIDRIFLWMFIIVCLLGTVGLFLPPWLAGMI
Chain of Growth hormone secretagogue receptor type 1 (Q92847 whole entry): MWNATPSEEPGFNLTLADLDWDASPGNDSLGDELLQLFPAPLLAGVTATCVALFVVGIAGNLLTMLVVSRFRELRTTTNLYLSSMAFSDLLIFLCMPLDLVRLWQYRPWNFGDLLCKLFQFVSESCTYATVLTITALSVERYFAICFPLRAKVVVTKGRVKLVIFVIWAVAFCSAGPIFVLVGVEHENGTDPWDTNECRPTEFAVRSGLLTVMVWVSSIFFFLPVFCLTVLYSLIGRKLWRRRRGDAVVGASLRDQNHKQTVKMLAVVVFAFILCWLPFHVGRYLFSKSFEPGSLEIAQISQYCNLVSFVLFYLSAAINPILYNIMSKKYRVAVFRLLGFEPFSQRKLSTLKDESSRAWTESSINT
Chain of Beta-2 adrenergic receptor (P07550 whole entry): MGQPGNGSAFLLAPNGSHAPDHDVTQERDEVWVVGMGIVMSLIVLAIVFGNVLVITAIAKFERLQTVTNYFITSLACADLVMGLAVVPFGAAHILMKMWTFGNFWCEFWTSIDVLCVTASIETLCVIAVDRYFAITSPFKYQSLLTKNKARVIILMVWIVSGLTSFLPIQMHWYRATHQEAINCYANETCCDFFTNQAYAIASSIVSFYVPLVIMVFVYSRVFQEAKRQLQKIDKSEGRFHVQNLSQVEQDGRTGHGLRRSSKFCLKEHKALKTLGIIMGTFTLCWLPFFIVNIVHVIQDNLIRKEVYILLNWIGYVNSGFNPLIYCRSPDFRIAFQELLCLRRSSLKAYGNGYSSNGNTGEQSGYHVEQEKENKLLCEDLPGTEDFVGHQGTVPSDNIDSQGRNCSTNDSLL
Chain of cGMP-inhibited 3',5'-cyclic phosphodiesterase 3A (Q14432 whole entry): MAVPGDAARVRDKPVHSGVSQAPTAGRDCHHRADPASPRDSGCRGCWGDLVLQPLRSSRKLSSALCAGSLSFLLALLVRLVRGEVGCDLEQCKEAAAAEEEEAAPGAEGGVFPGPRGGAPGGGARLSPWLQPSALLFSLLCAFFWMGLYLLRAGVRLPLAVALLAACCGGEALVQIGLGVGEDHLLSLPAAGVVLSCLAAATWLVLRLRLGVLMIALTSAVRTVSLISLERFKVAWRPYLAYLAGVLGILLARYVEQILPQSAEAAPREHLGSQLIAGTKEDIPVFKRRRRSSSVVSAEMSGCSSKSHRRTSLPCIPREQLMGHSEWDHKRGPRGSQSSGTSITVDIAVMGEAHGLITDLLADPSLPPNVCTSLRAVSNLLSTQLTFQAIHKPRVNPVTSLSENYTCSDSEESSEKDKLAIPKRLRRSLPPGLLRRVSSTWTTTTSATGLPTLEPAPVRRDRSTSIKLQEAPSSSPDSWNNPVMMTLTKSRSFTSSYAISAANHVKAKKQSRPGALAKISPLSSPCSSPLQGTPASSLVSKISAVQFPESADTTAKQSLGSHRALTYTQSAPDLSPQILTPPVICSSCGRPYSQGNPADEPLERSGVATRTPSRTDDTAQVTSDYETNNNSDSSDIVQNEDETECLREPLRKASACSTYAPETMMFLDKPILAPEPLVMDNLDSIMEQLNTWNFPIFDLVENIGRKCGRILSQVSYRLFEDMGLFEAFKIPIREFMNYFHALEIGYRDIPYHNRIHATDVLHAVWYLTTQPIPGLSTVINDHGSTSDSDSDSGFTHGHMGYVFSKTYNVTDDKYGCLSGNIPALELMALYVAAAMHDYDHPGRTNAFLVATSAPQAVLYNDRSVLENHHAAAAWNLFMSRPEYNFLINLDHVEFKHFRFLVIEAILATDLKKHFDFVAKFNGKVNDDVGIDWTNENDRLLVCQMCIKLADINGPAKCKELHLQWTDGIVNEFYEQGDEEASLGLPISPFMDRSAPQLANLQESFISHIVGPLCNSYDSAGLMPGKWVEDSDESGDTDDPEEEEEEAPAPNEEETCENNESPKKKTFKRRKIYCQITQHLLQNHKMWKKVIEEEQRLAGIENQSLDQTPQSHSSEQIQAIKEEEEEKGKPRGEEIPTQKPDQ
Chain of Histamine H2 receptor (P25021 whole entry): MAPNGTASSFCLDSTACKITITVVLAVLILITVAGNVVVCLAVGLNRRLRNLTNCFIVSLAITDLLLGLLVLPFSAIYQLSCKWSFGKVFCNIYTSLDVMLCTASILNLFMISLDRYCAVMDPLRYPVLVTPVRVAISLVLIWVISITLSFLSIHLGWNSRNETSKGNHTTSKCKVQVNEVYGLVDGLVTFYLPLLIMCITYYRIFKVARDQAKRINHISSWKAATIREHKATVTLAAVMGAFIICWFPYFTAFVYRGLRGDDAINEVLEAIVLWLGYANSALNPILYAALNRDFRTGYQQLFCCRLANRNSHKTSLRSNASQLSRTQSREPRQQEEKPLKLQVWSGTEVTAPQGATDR

Structure (SMILES) | AC50 [1] [µM] | AC50 [2] [µM] | AC50 [3] [µM] | AC50 [4] [µM] | AC50 [5] [µM] | AC50 [6] [µM] | AC50 [7] [µM] | AC50 [8] [µM] | AC50 [9] [µM] | AC50 (Cannabinoid receptor 1 [10]) [µM] | AC50 (Cannabinoid receptor 1 [11]) [µM] | AC50 (Histamine H2 receptor) [µM] | AC50 [12] [µM]
O=C(O[C@H]1C[N+]2(CCCOc3ccccc3)CCC1CC2)C(O)(c1cccs1)c1cccs1 [ACLIDINIUM BROMIDE] | > 10 | > 30 | > 10 | > 30 | > 30 | > 30 | > 30 |  |  |  |  |  | 
COc1ccc(-n2nc(C(N)=O)c3c2C(=O)N(c2ccc(N4CCCCC4=O)cc2)CC3)cc1 [APIXABAN] |  | > 30 | > 30 | > 30 | > 30 | > 30 | > 30 | > 30 | > 30 | > 30 | > 30 | > 30 | > 30
CNCCc1ccccn1 [BETAHISTINE] | > 30 | > 30 | > 30 | > 30 | > 30 | > 30 | > 30 | > 30 | > 30 | > 30 | > 30 | > 30 | 
O=C(O)CCCC[C@@H]1SC[C@@H]2NC(=O)N[C@@H]21 [BIOTIN] |  |  | > 10 | > 10 | > 30 | > 30 | > 30 | > 10 | > 10 |  |  | > 10 | 
CC(NC(C)(C)C)C(=O)c1cccc(Cl)c1 (stereo unspecified) [BUPROPION] | > 10 | > 30 |  | > 30 | > 10 | > 10 |  | > 10 | > 10 | > 30 | > 30 | > 10 | 
CCCCOC(=O)c1ccc(N)cc1 [BUTAMBEN] | > 30 | > 30 | > 30 | > 30 | > 30 | > 30 | > 30 | > 30 | > 30 | > 30 | > 30 | > 30 | 
CC(=O)OCC1=C(C(=O)O)N2C(=O)[C@@H](NC(=O)Cc3cccs3)[C@H]2SC1 [CEPHALOTHIN] |  | > 30 | > 30 | > 30 | > 30 | > 30 | > 30 | > 30 | > 30 | > 30 | > 30 | > 30 | > 30
CC1=C(C(=O)O)N2C(=O)[C@@H](NC(=O)[C@H](N)C3=CCC=CC3)[C@H]2SC1 [CEPHRADINE] |  | > 30 | > 30 | > 30 | > 30 | > 30 | > 30 | > 30 | > 30 | > 30 | > 30 | > 30 | > 30
CCCCCCOC(=O)NC(=N)c1ccc(NCc2nc3cc(C(=O)N(CCC(=O)OCC)c4ccccn4)ccc3n2C)cc1 [DABIGATRAN ETEXILATE] |  | > 30 | > 30 | > 30 | > 30 | > 30 | > 30 | > 30 | > 30 | > 30 |  | > 30 | > 30
CC(=O)OCC(=O)[C@@]1(O)CC[C@H]2[C@@H]3CCC4=CC(=O)CC[C@]4(C)[C@@]3(F)[C@@H](O)C[C@@]21C [FLUDROCORTISONE ACETATE] | > 30 | > 30 | > 30 | > 30 | > 30 | > 30 | > 30 | > 30 | > 30 | > 30 | > 30 | > 30 | 
CCN(CC)CC(=O)Nc1c(C)cccc1C [LIDOCAINE] |  | > 30 |  | > 30 |  |  | > 10 |  |  |  |  |  | 
